Laboratory results reported in ChEMBL document CHEMBL5380851, “"Magic Chloro": Profound Effects of the Chlorine Atom in Drug Discovery” (J Med Chem, 2023).

Assay: Dissociation constant, pKa of the compound

pKa	Compound
3.83	Clc1ccncc1
2.81	Clc1cccnc1

Compound	pKa
Clc1ccccn1 [2-CHLOROPYRIDINE]	0.49
